1 substance from EP4763221A1, “COMPOUND AND ANTIBODY-DRUG CONJUGATE COMPRISING SAME” (priority 2023, dated 2025) can be followed below.

For assay [1], the system named is MDA-MB-453 cells. As to the kind of experiment: ADCC activity with PBMCs (LDH cytotoxicity detection). It counts as cell-based. The following applies: 5, 15 and 45 µg/mL, PBMC effector-to-target ratio 30:1, 4 h. As for the experimental part: MDA-MB-453 cells (purchased from Cobioer Biosciences Co., Ltd., Cat. No. CBP60386) and PBMCs (provided by Zhongshan Blood Center) in the logarithmic growth phase were collected and centrifuged at 170× g for 5 min, and the supernatant was discarded. The cell pellet was resuspended in an assay medium (RPMI-1640 containing 1% FBS), centrifuged and washed twice, and the cells were counted. The cell density was adjusted with the assay medium, and the target cell suspension was seeded into a 96-well plate (containing about 3 × 10^4 target cells/well) at 50 µL/well. Then, serially diluted drugs (5 µg/mL, 15 µg/mL, and 45 µg/mL based on the working concentration of the antibody, respectively) were added, and the plate was pre-incubated at room temperature for 1 h. After the pre-incubation was completed, the PBMC suspension was added to the sample wells at 100 µL/well (each well contained about 9 × 10^5 PBMCs with an effector-to-target ratio of 30:1), mixed uniformly, and incubated in an incubator at 37 °C with 5% CO2 for 4 h. After the incubation was completed, the 96-well plate was taken out and centrifuged at 250× g for 5 min. 100 µL of culture supernatant was carefully pipetted and transferred to another 96-well plate. […] OD values at 490 nm and 650 nm were measured. […] The ADCC activity (expressed as ADCC%) was calculated based on the measured OD value of each group. […]

Assay [2] has as its system MDA-MB-453 cells. As to the kind of experiment: FACS assay for internalization activity in MDA-MB-453 cells. It counts as cell-based. The following applies: 100 nM, 37 °C for 1 h, 3 h and 5 h, compared to isotype control IgG-Dxd. As for the experimental part:
MDA-MB-453 cells (purchased from Cobioer Biosciences Co., Ltd., Cat. No. CBP60386) were collected, counted, and determined for cell viability. The cell suspension was added to a 96-well low-adsorption plate at 1 × 10^5 cells/sample and centrifuged at 750× g for 5 min. The supernatant was discarded. 100 µL of the experimental drug (at a working concentration of 100 nM) was added, with an isotype control (IgG-Dxd, at a working concentration of 100 nM) designed in parallel. The mixture was mixed uniformly and incubated in an incubator at 37 °C for 1 h, 3 h, and 5 h. After the incubation was completed, 1% PBSA (PBS + 1% BSA) was added, and the mixture was centrifuged at 750× g for 5 min. The supernatant was discarded, and the cells were washed twice with 1% PBSA. 100 µL of patritumab (at a working concentration of 100 nM) was added, and the mixture was incubated on ice for 30 min. 1% PBSA (PBS + 1% BSA) was added, and the mixture was centrifuged at 750× g for 5 min. The supernatant was discarded, and the cells were further washed twice with 1% PBSA. 100 µL of 300-fold diluted fluorescent antibody Mouse Anti-Human IgG Fc-Alexa Fluor 647 (Southern Biotech, Cat. No. 9040-31) was added, and the cell pellet was resuspended and incubated on ice for 30 min in the dark. 1% PBSA (PBS + 1% BSA) was added, and the mixture was centrifuged at 1000× g for 5 min. […]
(In flow cytometry, cells or beads pass a laser one at a time.)

Assay [3] relates to HCC827 human lung cancer cell xenograft tumor. Nature of the assay: In vivo efficacy in xenograft tumor model. Also noted: species or system CB-17 SCID mice. The note with it: 3 mg/kg and 1.5 mg/kg, IV, weekly×3, compared to isotype control antibody. From the text:
To determine the anti-tumor activity of the anti-HER3 antibody-drug conjugates in vivo, HCC827 human lung cancer cells (purchased from GuangZhou Jennio Biotech Co., Ltd.) were first inoculated subcutaneously into 5- to 8-week-old female CB-17 SCID mice (purchased from Guangdong Model Organisms Center, Inc.) on the upper posterior region of the right hind thigh. The day of grouping was defined as D0. The route of administration was intravenous injection (iv), once a week for a total of 3 doses. After the administration, the length and width of the tumors in each group were measured, and the tumor volume was calculated. Table 7: Dosing regimen of anti-HER3 antibody-drug conjugates for treatment of CB-17 SCID mouse model of HCC827 human lung cancer cell xenograft tumor

The test system of a further assay is NCI-H1781 cells. As to the kind of experiment: Specific cell killing activity (CellTiter-Glo). The assay is classed as cell-based. The following applies: medium with 10% human ab serum, 6 days. The method, then: NCI-H1781 cells (Cobioer Biosciences Co., Ltd., Cat. No. CBP60116) were collected, and centrifuged at 1000× g for 5 min, and then the supernatant was removed. The cells were resuspended and counted, and the viability was determined. The cells were diluted, and NCI-H1781 (2500 cells/100 µL) was added to each well of a black-bottom 96-well plate. The plate was incubated in an incubator at 37 °C with 5% CO2 overnight. The experimental drug was diluted with a medium (10% human ab serum), and 100 µL of the experimental drug was added to each well according to the experimental design. A blank control was designed, with three replicate wells set for each group. The plate was incubated in an incubator at 37 °C with 5% CO2 for 6 days. After incubation, the 96-well plate was centrifuged at 350× g for 5 min, and then 135 µL of the supernatant was discarded. 60 µL of CellTiter-Glo (Promega, Cat. No. G8461) was added to each well. The plate was incubated at room temperature for 15 min. Then the […] value was detected by a multi-label microplate tester.

With “KA0013: anti-HER3 antibody-drug conjugate: patritumab conjugated via thioether bonds to Mc-AAA-Dxd (KA0012)”, in the assay on MDA-MB-453 cells [1], the ADCC activity entry is recorded as “had ADCC activity”. Besides, the “endocytic (internalization) activity” value with MDA-MB-453 cells [2] is reported as “could be endocytosed in MDA-MB-453”. The “growth of mouse tumors (tumor volume)” value in assay [3] was “effectively inhibit the growth of mouse tumors”. Further, the “specific cell killing activity” value in the assay on NCI-H1781 cells was “specifically kill NCI-H1781 cells”.
